# Source: US12077503B2, “Substituted cyclic amides and their use as herbicides” (FMC CORPORATION, priority 2015, dated 2024)
# Experiments:
# Assay type in all cases: in vivo
# [1] = system: barnyardgrass (Echinochloa crus-galli); assay: Test A preemergence; conditions: Echinochloa crus-galli, pre-emergence, 240 h, 0 to 100 scale where 0 is no effect and 100 is complete control, read-out: Barnyardgrass plant response rating; for pest or weed control at 31 g/ha: 31 g ai/ha, Preemergence; for pest or weed control at 125 g/ha: 125 g ai/ha, preemergence, visual injury rating, approximately 10 d
# Outline: (§1)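 Preemergence soil spray on seeded pots or post-emergence spray on 1–2 leaf plants, in loam–sand blend. Greenhouse ~10 d. Visual rating 0–100 against untreated plants.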
# [2] = system: ryegrass, Italian (Italian ryegrass, Lolium multiflorum); assay: Test A preemergence; conditions: Lolium multiflorum, pre-emergence, 240 h, 0 to 100 scale where 0 is no effect and 100 is complete control, read-out: Ryegrass, Italian plant response rating; for pest or weed control at 31 g/ha: 31 g ai/ha, Preemergence; for pest or weed control at 125 g/ha: 125 g ai/ha, preemergence, visual injury rating, approximately 10 d
# Outline: as §1
# [3] = system: giant foxtail (Setaria faberii); assay: Test A preemergence; conditions: Setaria faberi, pre-emergence, 240 h, 0 to 100 scale where 0 is no effect and 100 is complete control, read-out: Foxtail, Giant plant response rating; for pest or weed control at 31 g/ha: 31 g ai/ha, Preemergence; for pest or weed control at 125 g/ha: 125 g ai/ha, preemergence, visual injury rating, approximately 10 d
# Outline: as §1
# [4] = system: pigweed (Amaranthus retroflexus); assay: Test A preemergence; conditions: Amaranthus retroflexus, pre-emergence, 240 h, 0 to 100 scale where 0 is no effect and 100 is complete control, read-out: Pigweed plant response rating; for pest or weed control at 31 g/ha: 31 g ai/ha, Preemergence; for pest or weed control at 125 g/ha: 125 g ai/ha, preemergence, visual injury rating, approximately 10 d
# [5] = system: ragweed (common ragweed, Ambrosia elatior); assay: Test A preemergence; conditions: Ambrosia artemisiifolia, pre-emergence, 240 h, 0 to 100 scale where 0 is no effect and 100 is complete control, read-out: Ragweed plant response rating; for pest or weed control at 31 g/ha: 31 g ai/ha, Preemergence; for pest or weed control at 125 g/ha: 125 g ai/ha, preemergence, visual injury rating, approximately 10 d
# Outline: as §1
# Kochia (Kochia scoparia) [6] = assay: Test A preemergence; conditions: Bassia scoparia, pre-emergence, 240 h, 0 to 100 scale where 0 is no effect and 100 is complete control, read-out: Kochia plant response rating; for pest or weed control at 31 g/ha: 31 g ai/ha, Preemergence; for pest or weed control at 125 g/ha: 125 g ai/ha, preemergence, visual injury rating, approximately 10 d
# Outline: as §1
# [7] = system: barnyardgrass (Echinochloa crus-galli); assay: Test B flooded paddy test; conditions: Echinochloa crus-galli, 250 g ai/ha, Flood; 0 to 100 scale where 0 is no effect and 100 is complete control; read-out: Barnyardgrass plant response rating
# Outline: (§2)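 Visual ratings (0 none to 100 complete control) are relative to untreated plants, taken 13–15 d after treatment in a greenhouse. Test material went straight into floodwater standing 3 cm above the soil, kept constant, on plants at the 2-leaf stage.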
# [8] = system: ducksalad (Heteranthera limosa); assay: Test B flooded paddy test; conditions: Heteranthera limosa, 250 g ai/ha, Flood; 0 to 100 scale where 0 is no effect and 100 is complete control; read-out: Ducksalad plant response rating
# Outline: as §2
# rice (Oryra sativa) = assay: Test B flooded paddy test; conditions: Oryza sativa, 250 g ai/ha, Flood; 0 to 100 scale where 0 is no effect and 100 is complete control; read-out: Rice plant response rating
# Outline: as §2
# [9] = system: sedge, umbrella (small-flower umbrella sedge, Cyperus difformis); assay: Test B flooded paddy test; conditions: Cyperus difformis, 250 g ai/ha, Flood; 0 to 100 scale where 0 is no effect and 100 is complete control; read-out: Sedge, Umbrella plant response rating
# Outline: as §2
# [10] = system: blackgrass (Alopecurus myosuroides); assay: Test A postemergence; conditions: Alopecurus myosuroides, post-emergence, 240 h, read-out: Blackgrass plant response rating (0 to 100 scale); for pest or weed control at 125 g/ha: 125 g ai/ha, postemergence, visual injury vs untreated controls after approx. 10 d, 0 = no effect, 100 = complete control; for pest or weed control at 31 g/ha: Postemergence, 31 g ai/ha, 0 is no effect, 100 is complete control
# Outline: as §1
# [11] = system: barnyardgrass (Echinochloa crus-galli); assay: Test A postemergence; conditions: Echinochloa crus-galli, post-emergence, 240 h, read-out: Barnyardgrass plant response rating (0 to 100 scale); for pest or weed control at 125 g/ha: 125 g ai/ha, postemergence, visual injury vs untreated controls after approx. 10 d, 0 = no effect, 100 = complete control; for pest or weed control at 31 g/ha: Postemergence, 31 g ai/ha, 0 is no effect, 100 is complete control
# Outline: as §1
# [12] = system: ryegrass, Italian (Italian ryegrass, Lolium multiflorum); assay: Test A postemergence; conditions: Lolium multiflorum, post-emergence, 240 h, read-out: Ryegrass, Italian plant response rating (0 to 100 scale); for pest or weed control at 125 g/ha: 125 g ai/ha, postemergence, visual injury vs untreated controls after approx. 10 d, 0 = no effect, 100 = complete control; for pest or weed control at 31 g/ha: Postemergence, 31 g ai/ha, 0 is no effect, 100 is complete control
# Outline: as §1
# [13] = system: giant foxtail (Setaria faberii); assay: Test A postemergence; conditions: Setaria faberi, post-emergence, 240 h, read-out: Foxtail, Giant plant response rating (0 to 100 scale); for pest or weed control at 125 g/ha: 125 g ai/ha, postemergence, visual injury vs untreated controls after approx. 10 d, 0 = no effect, 100 = complete control; for pest or weed control at 31 g/ha: Postemergence, 31 g ai/ha, 0 is no effect, 100 is complete control
# Outline: as §1
# [14] = system: wheat (Triticum aestivum); assay: Test A postemergence; conditions: Triticum aestivum, post-emergence, 240 h, read-out: Wheat plant response rating (0 to 100 scale); for plant injury at 125 g/ha: 125 g ai/ha, postemergence, visual injury vs untreated controls after approx. 10 d, 0 = no effect, 100 = complete control; for plant injury at 31 g/ha: Postemergence, 31 g ai/ha, 0 is no effect, 100 is complete control
# Outline: as §1
# [15] = system: Galium (catchweed bedstraw, Galium aparine); assay: Test A postemergence; conditions: Galium, post-emergence, 240 h, read-out: Galium plant response rating (0 to 100 scale); for pest or weed control at 125 g/ha: 125 g ai/ha, postemergence, visual injury vs untreated controls after approx. 10 d, 0 = no effect, 100 = complete control; for pest or weed control at 31 g/ha: Postemergence, 31 g ai/ha, 0 is no effect, 100 is complete control
# Outline: as §1
# [16] = system: pigweed (Amaranthus retroflexus); assay: Test A postemergence; conditions: Amaranthus retroflexus, post-emergence, 240 h, read-out: Pigweed plant response rating (0 to 100 scale); for pest or weed control at 125 g/ha: 125 g ai/ha, postemergence, visual injury vs untreated controls after approx. 10 d, 0 = no effect, 100 = complete control; for pest or weed control at 31 g/ha: Postemergence, 31 g ai/ha, 0 is no effect, 100 is complete control
# Outline: as §1
# [17] = system: ragweed (common ragweed, Ambrosia elatior); assay: Test A postemergence; conditions: Ambrosia artemisiifolia, post-emergence, 240 h, read-out: Ragweed plant response rating (0 to 100 scale); for pest or weed control at 125 g/ha: 125 g ai/ha, postemergence, visual injury vs untreated controls after approx. 10 d, 0 = no effect, 100 = complete control; for pest or weed control at 31 g/ha: Postemergence, 31 g ai/ha, 0 is no effect, 100 is complete control
# Outline: as §1
# Kochia (Kochia scoparia) [18] = assay: Test A postemergence; conditions: Bassia scoparia, post-emergence, 240 h, read-out: Kochia plant response rating (0 to 100 scale); for pest or weed control at 125 g/ha: 125 g ai/ha, postemergence, visual injury vs untreated controls after approx. 10 d, 0 = no effect, 100 = complete control; for pest or weed control at 31 g/ha: Postemergence, 31 g ai/ha, 0 is no effect, 100 is complete control
# Outline: as §1
# corn (Zea mays) = assay: Test A postemergence; conditions: Zea mays, post-emergence, 240 h, read-out: Corn plant response rating (0 to 100 scale); for plant injury at 125 g/ha: 125 g ai/ha, postemergence, visual injury vs untreated controls after approx. 10 d, 0 = no effect, 100 = complete control; for plant injury at 31 g/ha: Postemergence, 31 g ai/ha, 0 is no effect, 100 is complete control
# Outline: as §1
Structure (SMILES),pest or weed control at 31 g/ha [1],pest or weed control at 125 g/ha [1],pest or weed control at 31 g/ha [2],pest or weed control at 125 g/ha [2],pest or weed control at 31 g/ha [3],pest or weed control at 125 g/ha [3],pest or weed control at 31 g/ha [4],pest or weed control at 125 g/ha [4],pest or weed control at 31 g/ha [5],pest or weed control at 125 g/ha [5],pest or weed control at 31 g/ha (Kochia (Kochia scoparia) [6]),pest or weed control at 125 g/ha (Kochia (Kochia scoparia) [6]),pest or weed control at 250 g/ha [7],pest or weed control at 250 g/ha [8],pest or weed control at 250 g/ha (rice (Oryra sativa)),pest or weed control at 250 g/ha [9],pest or weed control at 125 g/ha [10],pest or weed control at 31 g/ha [10],pest or weed control at 125 g/ha [11],pest or weed control at 31 g/ha [11],other results
Cc1ccc([C@H]2CN(C)C(=O)[C@@H]2C(=O)Nc2cccc(C#N)c2F)cc1 [Compound 1188],90%,100%,0%,60%,90%,100%,40%,80%,30%,70%,60%,80%,65%,100%,15%,0%,70%,30%,100%,70%,pest or weed control at 125 g/ha [12]: 40%; pest or weed control at 31 g/ha [12]: 0%; pest or weed control at 125 g/ha [13]: 80%; pest or weed control at 31 g/ha [13]: 70%; plant injury at 125 g/ha [14]: 40%; plant injury at 31 g/ha [14]: 0%; pest or weed control at 125 g/ha [15]: 60%; pest or weed control at 31 g/ha [15]: 50%; pest or weed control at 125 g/ha [16]: 20%; pest or weed control at 31 g/ha [16]: 0%; pest or weed control at 125 g/ha [17]: 40%; pest or weed control at 31 g/ha [17]: 0%; pest or weed control at 125 g/ha (Kochia (Kochia scoparia) [18]): 50%; pest or weed control at 31 g/ha (Kochia (Kochia scoparia) [18]): 0%; plant injury at 125 g/ha (corn (Zea mays)): 50%; plant injury at 31 g/ha (corn (Zea mays)): 0%
CN1C[C@H](c2ccc(C#N)c(F)c2)[C@@H](C(=O)Nc2ccccc2F)C1=O [Compound 1190],50%,90%,0%,0%,60%,90%,0%,0%,0%,0%,0%,0%,55%,90%,40%,0%,0%,0%,60%,0%,pest or weed control at 125 g/ha [12]: 0%; pest or weed control at 31 g/ha [12]: 0%; pest or weed control at 125 g/ha [13]: 20%; pest or weed control at 31 g/ha [13]: 0%; plant injury at 125 g/ha [14]: 0%; plant injury at 31 g/ha [14]: 0%; pest or weed control at 125 g/ha [15]: 20%; pest or weed control at 31 g/ha [15]: 0%; pest or weed control at 125 g/ha [16]: 0%; pest or weed control at 31 g/ha [16]: 0%; pest or weed control at 125 g/ha [17]: 0%; pest or weed control at 31 g/ha [17]: 0%; pest or weed control at 125 g/ha (Kochia (Kochia scoparia) [18]): 0%; pest or weed control at 31 g/ha (Kochia (Kochia scoparia) [18]): 0%; plant injury at 125 g/ha (corn (Zea mays)): 0%; plant injury at 31 g/ha (corn (Zea mays)): 0%
